Test results as given in US9655884B2, “Antiparasitic use of isoxazoline compounds” (Intervet Inc., priority 2013, dated 2017).

Test system: C. felis
Test: In vivo study in dogs to assess flea control efficacy in a simulated home environment
Details: 25 mg/kg oral; for Mean flea numbers (arithmetic), Treated group / Mean flea numbers (geometric), Treated group: 25 mg/kg
Protocol: Twenty healthy male and female mixed-breed dogs ≧12 weeks old were housed in individual pens. Ten dogs per group were randomly assigned to receive either a fluralaner chewable tablet (Bravecto™) or no treatment. Each pen contained the bottom half of a dog carrier lined with carpet as bedding. Before treatment, each dog was infested twice (28 and 21 days pretreatment) with 100 adult, unfed C. felis to establish a flea population prior to treatment on each dog. Flea media was added to the carpet 4 weeks before the treatment date and weekly thereafter for the remainder of the study to encourage development of an active, developing population of juvenile flea stages in each pen. On the treatment day, dogs in the treated group received fluralaner at a dose close to 25 mg/kg body weight by oral administration. The chewable tablet(s) were administered by placement in the back of the oral cavity over the tongue to initiate swallowing. Dogs in the negative control group remained untreated. Flea counts were performed on all dogs 1 day before treatment, 1 day after treatment and then every 7 days until completion of the study 84 days later. All live fleas recovered were held and re-infested on the dog after the comb count was completed. Each dog was also infested with 50 newly emerged unfed adult fleas on days 22, 50 and 78 to simulate natural infestation post-treatment. The individual dog was the experimental unit and data from each flea count time point were analyzed separately. Flea count data were transformed [Y=loge(x+1)] and analyzed by a mixed linear model including treatment as the fixed effect and block as the random effect. Kenward-Rogers adjustment was used to determine the denominator degree of freedom. A two-tailed test was used within the mixed linear model for the comparison between treatment groups and statistical significance was declared when P≦0.05. SAS version 9.3 was the primary software used for analysis. Efficacy was calculated using arithmetic and geometric means with Abbott's formula: Efficacy (%)=100×(MC−MT)/MC, where MC was the arithmetic or geometric mean number of total adult live fleas on untreated dogs and MT the arithmetic or geometric mean number of total adult live fleas on treated dogs.

[1] = day 1 post treatment, listed as fluranaler
[2] = day 7 post treatment, listed as fluranaler
[3] = day 14 post treatment, listed as fluranaler
[4] = day 21 post treatment, listed as fluranaler
[5] = day 28 post treatment, listed as fluranaler
[6] = day 35 post treatment, listed as fluranaler
[7] = day 42 post treatment, listed as fluranaler
[8] = day 49 post treatment, listed as fluranaler
[9] = day 56 post treatment, listed as fluranaler
[10] = day 63 post treatment, listed as fluranaler
[11] = day 70 post treatment, listed as fluranaler
[12] = day 77 post treatment, listed as fluranaler
[13] = day 84 post treatment, listed as fluranaler

With `Cc1cc(C2=NOC(c3cc(Cl)cc(Cl)c3)(C(F)(F)F)C2)ccc1C(=O)NCC(=O)NCC(F)(F)F` (stereo not shown) [fluralaner, 4-[5-(3,5-Dichlorophenyl)-5-trifluoromethyl-4,5-dihydroisoxazol-3-yl]-2-methyl-N-[(2,2,2-trifluoro-ethylcarbamoyl)-methyl]-benzamide] the Flea-control efficacy (all post-treatment time points (12-week post-treatment period)) was ~100%, the “Efficacy (from arithmetic mean flea counts)” value (day 1 post treatment) was 100/100% and the “Efficacy (from geometric mean flea counts)” value (day 1 post treatment) was 100/100%. The “Mean flea numbers (arithmetic), Treated group” value (from here on “Mean flea numbers (arithmetic)”) (day 1 post treatment) was 0, the “Mean flea numbers (geometric), Treated group” value (“Mean flea numbers (geometric)” for short) (day 1 post treatment) was 0 and the “Mean flea numbers (arithmetic)” value [1] was 0/0. The “Mean flea numbers (geometric)” value [1] was 0/0, the “Efficacy (from arithmetic mean flea counts)” value (day 7 post treatment) was 100/100% and the “Efficacy (from geometric mean flea counts)” value (day 7 post treatment) was 100/100%. For the same molecule, the “Mean flea numbers (arithmetic)” value (day 7 post treatment) was 0, the “Mean flea numbers (geometric)” value (day 7 post treatment) was 0 and the “Mean flea numbers (arithmetic)” value [2] was 0/0. For the same molecule, the “Mean flea numbers (geometric)” value [2] was 0/0, the “Efficacy (from arithmetic mean flea counts)” value (day 14 post treatment) was 100/100% and the “Efficacy (from geometric mean flea counts)” value (day 14 post treatment) was 100/100%. The “Mean flea numbers (arithmetic)” value (day 14 post treatment) was 0, the “Mean flea numbers (geometric)” value (day 14 post treatment) was 0 and the “Mean flea numbers (arithmetic)” value [3] was 0/0. For the same molecule, the “Mean flea numbers (geometric)” value [3] was 0/0, the “Efficacy (from arithmetic mean flea counts)” value (day 21 post treatment) was 100/100% and the “Efficacy (from geometric mean flea counts)” value (day 21 post treatment) was 100/100%. For the same molecule, the “Mean flea numbers (arithmetic)” value (day 21 post treatment) was 0, the “Mean flea numbers (geometric)” value (day 21 post treatment) was 0 and the “Mean flea numbers (arithmetic)” value [4] was 0/0. For the same molecule, the “Mean flea numbers (geometric)” value [4] was 0/0, the “Efficacy (from arithmetic mean flea counts)” value (day 28 post treatment) was 100/100% and the “Efficacy (from geometric mean flea counts)” value (day 28 post treatment) was 100/100%. For the same molecule, the “Mean flea numbers (arithmetic)” value (day 28 post treatment) was 0, the “Mean flea numbers (geometric)” value (day 28 post treatment) was 0 and the “Mean flea numbers (arithmetic)” value [5] was 0/0. The “Mean flea numbers (geometric)” value [5] was 0/0, the “Efficacy (from arithmetic mean flea counts)” value (day 35 post treatment) was 100/100% and the “Efficacy (from geometric mean flea counts)” value (day 35 post treatment) was 100/100%. The “Mean flea numbers (arithmetic)” value (day 35 post treatment) was 0, the “Mean flea numbers (geometric)” value (day 35 post treatment) was 0 and the “Mean flea numbers (arithmetic)” value [6] was 0/0. The “Mean flea numbers (geometric)” value [6] was 0/0, the “Efficacy (from arithmetic mean flea counts)” value (day 42 post treatment) was 100/100% and the “Efficacy (from geometric mean flea counts)” value (day 42 post treatment) was 100/100%. For the same molecule, the “Mean flea numbers (arithmetic)” value (day 42 post treatment) was 0, the “Mean flea numbers (geometric)” value (day 42 post treatment) was 0 and the “Mean flea numbers (arithmetic)” value [7] was 0/0. The “Mean flea numbers (geometric)” value [7] was 0/0, the “Efficacy (from arithmetic mean flea counts)” value (day 49 post treatment) was 99.8% and the “Efficacy (from geometric mean flea counts)” value (day 49 post treatment) was 99.7%. The “Mean flea numbers (arithmetic)” value (day 49 post treatment) was 0.1, the “Mean flea numbers (geometric)” value (day 49 post treatment) was 0.1 and the “Mean flea numbers (arithmetic)” value [8] was 0.1/0.1. For the same molecule, the “Mean flea numbers (geometric)” value [8] was 0.1/0.1, the “Efficacy (from arithmetic mean flea counts)” value (day 56 post treatment) was 99.8/99.8% and the “Efficacy (from geometric mean flea counts)” value (day 56 post treatment) was 99.8/99.8%. The “Mean flea numbers (arithmetic)” value (day 56 post treatment) was 0.1, the “Mean flea numbers (geometric)” value (day 56 post treatment) was 0.1 and the “Mean flea numbers (arithmetic)” value [9] was 0.1/0.1. For the same molecule, the “Mean flea numbers (geometric)” value [9] was 0.1/0.1, the “Efficacy (from arithmetic mean flea counts)” value (day 63 post treatment) was 100/100% and the “Efficacy (from geometric mean flea counts)” value (day 63 post treatment) was 100/100%. For the same molecule, the “Mean flea numbers (arithmetic)” value (day 63 post treatment) was 0, the “Mean flea numbers (geometric)” value (day 63 post treatment) was 0 and the “Mean flea numbers (arithmetic)” value [10] was 0/0. For the same molecule, the “Mean flea numbers (geometric)” value [10] was 0/0, the “Efficacy (from arithmetic mean flea counts)” value (day 70 post treatment) was 99.7% and the “Efficacy (from geometric mean flea counts)” value (day 70 post treatment) was 99.6%. For the same molecule, the “Mean flea numbers (arithmetic)” value (day 70 post treatment) was 0.1, the “Mean flea numbers (geometric)” value (day 70 post treatment) was 0.1 and the “Mean flea numbers (arithmetic)” value [11] was 0.1/0.1. The “Mean flea numbers (geometric)” value [11] was 0.1/0.1, the “Efficacy (from arithmetic mean flea counts)” value (day 77 post treatment) was 100/100% and the “Efficacy (from geometric mean flea counts)” value (day 77 post treatment) was 100/100%. For the same molecule, the “Mean flea numbers (arithmetic)” value (day 77 post treatment) was 0, the “Mean flea numbers (geometric)” value (day 77 post treatment) was 0 and the “Mean flea numbers (arithmetic)” value [12] was 0/0. The “Mean flea numbers (geometric)” value [12] was 0/0, the “Efficacy (from arithmetic mean flea counts)” value (day 84 post treatment) was 100/100% and the “Efficacy (from geometric mean flea counts)” value (day 84 post treatment) was 100/100%. For the same molecule, the “Mean flea numbers (arithmetic)” value (day 84 post treatment) was 0, the “Mean flea numbers (geometric)” value (day 84 post treatment) was 0 and the “Mean flea numbers (arithmetic)” value [13] was 0/0. The “Mean flea numbers (geometric)” value [13] was 0/0.
